# Data published in US8846949B2, “Pyrrolopyrazoles as N-type calcium channel blockers” (Janssen Pharmaceutica NV, priority 2012, dated 2014).
# Where two headings read alike, the source gives them in different places.
# How the values were obtained:
# [1] = biological target: T1, N-type calcium channel α1B (Cav2.2), β3 and α2δ subunits (Homo sapiens, UniProt Q00975); assay: Functional assay, antagonism of N-type calcium channel (FDSS calcium mobilization response to KCl depolarization); format: cell-based; settings: for IC50: HEK stable cell line, 50 mM KCl depolarization, six-point concentration-response
# T1 construct: expressed in transfected cells
# Protocol: A stable cell line (HEK parent) co-expressing the α1B (Cav2.2), β3 and α2δ subunits of the N-type calcium channel subunits was used. These cells were routinely grown as monolayers in low glucose-containing Dulbecco's Modified Eagle Medium supplemented with 10% FBS, 2 mM L-glutamine, 100 I.U./mL penicillin, 100 μg/mL streptomycin, 400 μg/mL G418 and 200 μg/mL Zeocin (split ratio=1:5). Cells were maintained in 5% CO2 at 37° C. Compounds of Formula (I) were prepared as 10 mM stocks in DMSO from neat compound, if available. Otherwise, the 5 or 10 mM DMSO stock solutions provided in-house were used.
# Calcium mobilization responses to KCl depolarization were evaluated by measuring the intensity of calcium-mediated fluorescent signal in the presence of BD Calcium Assay Dye (BD Biosciences, Franklin Lakes, N.J., U.S.A.), utilizing a Functional Drug Screening System (FDSS) by Hamamatsu Corporation (Bridgewater, N.J. U.S.A.).
# Twenty-four hr prior to assay, cells were seeded in clear-base poly-D-lysine-coated 384-well plates (BD Biosciences) at a density of 5,000 cells per well in culture medium and grown overnight in 5% CO2 at 37° C. On the day of assay, growth media were removed, and cells were loaded with BD calcium assay dye (BD Biosciences) for 35 min at 37° C. under 5% CO2 and then for 25 min at room temp. Utilizing the FDSS, cells were exposed to representative compounds of Formula (I) at varying concentrations, and intracellular calcium was measured for 5 min prior to the addition of 50 mM KCl for an additional 3 min of measurement.
# IC50 values for representative compounds of Formula (I) were determined from six-point concentration-response experiments and represent the concentration of said compound required to inhibit 50% of the maximal response. Maximal fluorescence intensity (FI) achieved upon addition of 50 mM KCl was exported from the FDSS software and further analyzed using GraphPad Prism 3.02 (Graph Pad Software Inc., San Diego, Calif., U.S.A.). Data were normalized to the maximum average counts from quadruplicate wells for each condition in the presence of 50 mM KCl and to the minimum average counts in the presence of buffer. Theoretical curves were generated using nonlinear regression curve-fitting analysis of either sigmoidal concentration-response or sigmoidal concentration-response (variable slope), and the IC50 values with the best-fit curve determined by GraphPad Prism were reported.
# N-type calcium channel = biological target: T2, N-type calcium channel (Homo sapiens, UniProt Q00975); assay: Automated electrophysiology assay (QPatch-HT whole-cell patch clamp); format: cell-based
# T2 construct: expressed in transfected cells
# Protocol: Cells were grown in T175 flasks to 50%-90% confluence. At the time of use, cells were enzymatically treated with Detachin (Genlantis, San Diego, Calif. USA), centrifuged, rinsed, and resuspended in 293 SFM II media (Life Technologies, Grand Island, N.Y. U.S.A.) supplemented with 25 mM HEPES (Sigma-Aldrich, St. Louis, Mo. U.S.A.) to a concentration of 2-3×10^6 cells/mL. Cells were added to the automated cell preparation station on the QPatch-HT (Sophion Biosciences, North Brunswick, N.J. U.S.A.), and following a 10- to 30-min recovery period with gentle stirring, the assay protocol was initiated. During the automated cell preparation, cells were collected, centrifuged and resuspended in an extracellular (EC) solution containing 132 mM NaCl, 1.8 mM CaCl2, 5.4 mM KCl, 0.8 mM MgCl2, 10 mM glucose, and 10 mM HEPES (pH=7.4), adjusted with sucrose to approximately 315 m0sm. The QPlate was primed with an intracellular solution containing 135 mM CsCl, 10 mM EGTA, 4 MgATP, 0.3 NaGTP, and 20 mM HEPES (pH=7.2), adjusted to approximately 290 m0sm with deionized water and the EC solution. Cells were added to the prepared QPlate wells by robotic pipettes of the QPatch-HT.
# For cells determined to be in stable whole-cell patch clamp, the EC solution was replaced with a barium (Ba)/triethylammonium (TEA) solution containing 140 mM TEA-Cl, 10 mM BaCl2, 0.8 mM MgCl2, 10 mM glucose and 10 mM HEPES (pH=7.4). High (40 mM) BaCl2 concentrations were made with adjustments to TEA-C1 (90 mM) to maintain the osmolarity. From a resting potential of −80 mV, a train of depolarizing pulses (15 pulses at 5 Hz, +20 mV) was delivered to the cell once every 30 sec for eight trains (4 min total), and the resulting currents were measured during a control period (no compound). This protocol was repeated for each subsequent addition of control buffer with or without compound (three periods total, each with four trains). The current generated in the 1st and 15th pulses of the last train of each period in the presence of each drug concentration was normalized to the current generated during the control period at the respective pulses (representing low- and high-frequency stimulation, respectively). Data from both the second and third drug application periods were analyzed for each cell. A final addition of Ba/TEA solution containing 60-100 μM CdCl2 was made to block all N-type current and to “zero” the currents for each cell. All buffer/compound additions were made using a “spitting” feature of the QPatch-HT, which added three repetitions of 5 μL solution at the beginning of each recording period.
# To examine closed-state inactivation, cells were subjected to a channel-activating 50-msec depolarizing step pulse from −80 to +10 mV, followed by a 5-sec nonactivating step to voltages ranging from −130 to −60 mV in 10 mV increments and then a 50-ms step from −80 to +10 mV to assess the remaining current. Currents from the activating voltage pulse were normalized to the peak value of the test pulse following the −130 mV step and fit to a Boltzman equation to obtain the V1/2. Roscovitine (Sigma-Aldrich) was prepared as a 100 mM stock in dimethyl sulfoxide and diluted to the indicated working concentrations. […]. Compounds of Formula (I) were diluted first into dimethyl sulfoxide and then into 10% pluronic F-127 in water (Life Technologies), sonicated for 1 min and diluted into EC buffer. Vehicle controls were run in parallel in all experiments.
# Unless otherwise indicated, statistics for comparing among electrophysiological results utilized a one-way analysis of variance with Fisher's least squares determination test for pair-wise comparison.
# [2] = high frequency (15th pulse of train, 5 Hz), read-out: QPatch at High Frequency % Inhibition
# [3] = low frequency (1st pulse of train), read-out: QPatch at Low Frequency % Inhibition
# [4] = 1 μM, high frequency (15th pulse of train, 5 Hz), read-out: QPatch at High Frequency % Inhibition
# [5] = 1 μM, low frequency (1st pulse of train), read-out: QPatch at Low Frequency % Inhibition
# T2 sequence (Q00975 whole entry): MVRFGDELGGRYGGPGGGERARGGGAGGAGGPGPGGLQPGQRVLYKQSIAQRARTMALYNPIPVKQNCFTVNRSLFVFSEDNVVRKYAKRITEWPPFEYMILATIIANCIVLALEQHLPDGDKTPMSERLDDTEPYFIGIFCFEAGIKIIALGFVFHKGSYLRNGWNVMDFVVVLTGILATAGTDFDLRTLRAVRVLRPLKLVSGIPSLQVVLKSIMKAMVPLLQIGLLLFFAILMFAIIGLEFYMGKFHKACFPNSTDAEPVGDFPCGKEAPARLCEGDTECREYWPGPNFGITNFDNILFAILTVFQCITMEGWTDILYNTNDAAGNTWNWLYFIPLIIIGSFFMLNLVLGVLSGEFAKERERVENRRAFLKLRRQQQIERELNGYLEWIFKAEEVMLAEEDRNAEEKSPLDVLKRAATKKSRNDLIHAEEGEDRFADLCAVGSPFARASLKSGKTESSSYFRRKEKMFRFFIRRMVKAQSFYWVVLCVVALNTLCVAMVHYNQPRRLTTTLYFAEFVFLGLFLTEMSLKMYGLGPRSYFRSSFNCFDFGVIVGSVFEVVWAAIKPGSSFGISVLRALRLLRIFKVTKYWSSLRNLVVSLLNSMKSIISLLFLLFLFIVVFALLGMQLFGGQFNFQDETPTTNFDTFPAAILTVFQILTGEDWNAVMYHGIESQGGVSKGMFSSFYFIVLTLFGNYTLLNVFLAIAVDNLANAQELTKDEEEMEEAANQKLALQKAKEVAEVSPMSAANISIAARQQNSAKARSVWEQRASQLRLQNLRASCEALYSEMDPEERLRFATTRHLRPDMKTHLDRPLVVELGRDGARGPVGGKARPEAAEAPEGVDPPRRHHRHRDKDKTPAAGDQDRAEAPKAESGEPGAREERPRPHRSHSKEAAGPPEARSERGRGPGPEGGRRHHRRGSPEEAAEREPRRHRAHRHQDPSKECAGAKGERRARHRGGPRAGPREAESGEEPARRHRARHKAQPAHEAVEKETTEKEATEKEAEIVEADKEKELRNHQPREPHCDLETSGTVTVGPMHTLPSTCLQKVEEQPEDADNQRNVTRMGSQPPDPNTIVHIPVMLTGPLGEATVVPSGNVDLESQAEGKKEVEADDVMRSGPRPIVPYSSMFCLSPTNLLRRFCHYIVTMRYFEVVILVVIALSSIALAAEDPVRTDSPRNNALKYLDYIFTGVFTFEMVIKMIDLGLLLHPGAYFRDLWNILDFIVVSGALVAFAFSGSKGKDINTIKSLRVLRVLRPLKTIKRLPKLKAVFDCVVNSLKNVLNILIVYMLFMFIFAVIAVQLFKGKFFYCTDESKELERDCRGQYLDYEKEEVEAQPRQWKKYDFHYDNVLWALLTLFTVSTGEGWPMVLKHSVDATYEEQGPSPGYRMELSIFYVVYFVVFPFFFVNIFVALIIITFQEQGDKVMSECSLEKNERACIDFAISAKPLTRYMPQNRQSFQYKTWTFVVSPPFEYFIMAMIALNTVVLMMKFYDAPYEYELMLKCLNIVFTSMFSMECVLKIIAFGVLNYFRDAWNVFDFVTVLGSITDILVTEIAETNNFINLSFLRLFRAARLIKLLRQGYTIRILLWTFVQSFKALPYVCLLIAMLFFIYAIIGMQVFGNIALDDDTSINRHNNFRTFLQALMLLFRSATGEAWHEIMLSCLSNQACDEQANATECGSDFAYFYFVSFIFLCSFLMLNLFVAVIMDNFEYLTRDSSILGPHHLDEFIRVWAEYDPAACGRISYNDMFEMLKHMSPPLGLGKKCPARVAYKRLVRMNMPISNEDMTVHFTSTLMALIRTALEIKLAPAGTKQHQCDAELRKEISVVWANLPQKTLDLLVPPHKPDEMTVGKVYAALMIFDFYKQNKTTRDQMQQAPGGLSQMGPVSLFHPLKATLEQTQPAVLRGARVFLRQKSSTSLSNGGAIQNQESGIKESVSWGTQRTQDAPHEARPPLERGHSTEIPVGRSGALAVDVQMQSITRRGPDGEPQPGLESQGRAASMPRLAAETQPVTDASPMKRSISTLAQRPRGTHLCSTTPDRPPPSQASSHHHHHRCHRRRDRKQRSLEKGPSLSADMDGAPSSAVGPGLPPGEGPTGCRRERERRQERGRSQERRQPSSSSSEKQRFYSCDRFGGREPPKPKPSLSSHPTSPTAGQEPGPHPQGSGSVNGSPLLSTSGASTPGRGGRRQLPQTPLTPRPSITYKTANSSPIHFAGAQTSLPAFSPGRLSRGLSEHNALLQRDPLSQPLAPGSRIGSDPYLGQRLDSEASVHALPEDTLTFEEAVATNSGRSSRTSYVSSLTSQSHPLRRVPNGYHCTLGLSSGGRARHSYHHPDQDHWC
# T2 sequence (P54284 whole entry partner): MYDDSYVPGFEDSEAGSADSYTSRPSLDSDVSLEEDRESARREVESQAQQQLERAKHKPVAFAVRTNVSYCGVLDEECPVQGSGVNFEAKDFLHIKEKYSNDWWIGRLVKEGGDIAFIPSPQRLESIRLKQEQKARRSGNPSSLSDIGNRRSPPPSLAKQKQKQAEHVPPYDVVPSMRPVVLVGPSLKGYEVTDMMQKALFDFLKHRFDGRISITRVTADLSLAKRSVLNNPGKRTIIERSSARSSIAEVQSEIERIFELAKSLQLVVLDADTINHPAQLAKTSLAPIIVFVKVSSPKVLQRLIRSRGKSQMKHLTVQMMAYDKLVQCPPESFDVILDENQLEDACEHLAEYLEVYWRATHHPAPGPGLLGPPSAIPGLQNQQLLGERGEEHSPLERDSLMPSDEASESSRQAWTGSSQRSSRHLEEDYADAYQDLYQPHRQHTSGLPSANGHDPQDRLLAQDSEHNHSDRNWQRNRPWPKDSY
# T2 sequence (P54289 25-956 partner limits assumed): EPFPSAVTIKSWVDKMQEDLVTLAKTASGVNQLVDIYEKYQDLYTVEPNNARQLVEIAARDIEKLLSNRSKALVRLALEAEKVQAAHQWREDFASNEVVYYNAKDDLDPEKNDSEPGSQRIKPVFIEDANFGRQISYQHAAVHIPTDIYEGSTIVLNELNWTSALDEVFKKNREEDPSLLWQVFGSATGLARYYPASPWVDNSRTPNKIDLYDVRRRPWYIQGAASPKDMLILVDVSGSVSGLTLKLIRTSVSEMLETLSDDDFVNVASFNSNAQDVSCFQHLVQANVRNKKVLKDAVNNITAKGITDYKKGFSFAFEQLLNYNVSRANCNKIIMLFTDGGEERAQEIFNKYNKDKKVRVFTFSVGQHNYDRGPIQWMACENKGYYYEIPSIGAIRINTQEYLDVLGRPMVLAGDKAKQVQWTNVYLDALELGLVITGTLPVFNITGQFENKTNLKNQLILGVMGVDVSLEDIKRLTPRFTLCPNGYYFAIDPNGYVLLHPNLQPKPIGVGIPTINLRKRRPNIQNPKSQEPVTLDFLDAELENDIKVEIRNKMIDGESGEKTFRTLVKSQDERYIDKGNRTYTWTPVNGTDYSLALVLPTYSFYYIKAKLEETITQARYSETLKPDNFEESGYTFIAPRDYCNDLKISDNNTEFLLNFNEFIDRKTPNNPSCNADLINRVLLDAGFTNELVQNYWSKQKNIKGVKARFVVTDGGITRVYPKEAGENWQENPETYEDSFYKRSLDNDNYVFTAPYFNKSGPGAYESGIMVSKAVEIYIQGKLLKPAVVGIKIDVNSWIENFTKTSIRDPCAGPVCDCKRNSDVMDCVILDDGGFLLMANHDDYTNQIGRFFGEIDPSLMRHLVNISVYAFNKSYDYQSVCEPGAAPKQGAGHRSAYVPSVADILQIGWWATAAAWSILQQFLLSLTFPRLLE
# T2 sequence (P54289 957-1103 partner limits assumed): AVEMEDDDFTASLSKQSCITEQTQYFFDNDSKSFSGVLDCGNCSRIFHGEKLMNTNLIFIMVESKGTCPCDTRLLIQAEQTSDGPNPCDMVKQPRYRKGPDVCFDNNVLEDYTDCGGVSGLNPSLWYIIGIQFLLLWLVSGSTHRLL
# T1 sequence (Q00975 whole entry): as the sequence (Q00975 whole entry) above
# T1 sequence (P54284 whole entry partner): as the sequence (P54284 whole entry partner) above
# T1 sequence (P54289 25-956 partner limits assumed): as the sequence (P54289 25-956 partner limits assumed) above
# T1 sequence (P54289 957-1103 partner limits assumed): as the sequence (P54289 957-1103 partner limits assumed) above
SMILES,IC50 [1] [nM],inhibition at 1 µM (N-type calcium channel; [4]) [%],inhibition at 1 µM (N-type calcium channel; [5]) [%],further results
"CCc1ccccc1-n1nc2c(c1-c1ccc(Cl)cc1)CN(S(C)(=O)=O)C2 [Cpd 2, 3-(4-Chlorophenyl)-2-(2-ethylphenyl)-5-(methylsulfonyl)-2,4,5,6-tetrahydropyrrolo[3,4-c]pyrazole]",85,22,-9,
"CCc1ccccc1-n1nc2c(c1-c1ccc(Cl)cc1)CN(C(=O)CNC(=O)OC(C)(C)C)C2 [Cpd 11, tert-Butyl{2-[3-(4-chlorophenyl)-2-(2-ethylphenyl)-2,6-dihydropyrrolo[3,4-c]pyrazol-5 (4H)-yl]-2-oxoethyl}carbamate]",100,68,37,inhibition at 0.25 µM (N-type calcium channel; [2]): 31%; inhibition at 0.25 µM (N-type calcium channel; [3]): 14%
"CS(=O)(=O)N1Cc2nn(-c3ccccc3OC(F)(F)F)c(-c3ccc(Cl)cc3)c2C1 [Cpd 20, 3-(4-Chlorophenyl)-5-(methylsulfonyl)-2-[2-(trifluoromethoxy)phenyl]-2,4,5,6-tetrahydropyrrolo[3,4-c]pyrazole]",40,30,5,
"FC(F)(F)Oc1ccccc1-n1nc2c(c1-c1ccc(Cl)cc1)CN(c1ccc3nc(Cl)ccc3c1)C2 [Cpd 27, 2-Chloro-6-[3-(4-chlorophenyl)-2-[2-(trifluoromethoxy)phenyl]-2,6-dihydropyrrolo[3,4-c]pyrazol-5(4H)-yl]quinoline]",93,,-1,
"COc1ccccc1-n1nc2c(c1-c1ccc(Cl)cc1)CN(C(=O)OC(C)(C)C)C2 [Cpd 28, tert-Butyl 3-(4-chlorophenyl)-2-(2-methoxyphenyl)-2,6-dihydropyrrolo[3,4-c]pyrazole-5(4H)-carboxylate]",73,,,inhibition at 1 µM (N-type calcium channel; read-out: QPatch at High Frequency % Inhibition): 52%; inhibition at 1 µM (N-type calcium channel; read-out: QPatch at Low Frequency % Inhibition): 25%
"COc1ccccc1-n1nc2c(c1-c1ccc(Cl)cc1)CN(S(C)(=O)=O)C2 [Cpd 30, 3-(4-Chlorophenyl)-2-(2-methoxyphenyl)-5-(methylsulfonyl)-2,4,5,6-tetrahydropyrrolo[3,4-c]pyrazole]",21,49,28,
"COc1ccccc1-n1nc2c(c1-c1ccc(Cl)cc1)CN(S(=O)(=O)C1CC1)C2 [Cpd 32, 3-(4-Chlorophenyl)-5-(cyclopropylsulfonyl)-2-(2-methoxyphenyl)-2,4,5,6-tetrahydropyrrolo[3,4-c]pyrazole]",21,83,74,inhibition at 0.03 µM (N-type calcium channel; [2]): -5%; inhibition at 0.03 µM (N-type calcium channel; [3]): -6%; inhibition at 0.05 µM (N-type calcium channel; [2]): 23%; inhibition at 0.05 µM (N-type calcium channel; [3]): 10%; inhibition at 0.25 µM (N-type calcium channel; [2]): 64%; inhibition at 0.25 µM (N-type calcium channel; [3]): 57%
"COc1ccccc1-n1nc2c(c1-c1ccc(Cl)cc1)CN(S(=O)(=O)N(C)C)C2 [Cpd 33, 3-(4-Chlorophenyl)-2-(2-methoxyphenyl)-N,N-dimethyl-2,6-dihydropyrrolo[3,4-c]pyrazole-5(4H)-sulfonamide]",9,78,74,

# Continued by falling IC50 [1], values first:
IC50 [1] [nM],inhibition at 1 µM (N-type calcium channel; [4]) [%],inhibition at 1 µM (N-type calcium channel; [5]) [%],SMILES,further results
240,28,13,"CC(C)(C)OC(=O)NCC(=O)N1Cc2nn(-c3ccccc3OC(F)(F)F)c(-c3ccc(Cl)cc3)c2C1 [Cpd 22, tert-Butyl{2-[3-(4-chlorophenyl)-2-[2-(trifluoromethoxy)phenyl]-2,6-dihydropyrrolo[3,4-c]pyrazol-5(4H)-yl]-2-oxoethyl}carbamate]",
200,37,11,"CCc1ccccc1-n1nc2c(c1-c1ccc(Cl)cc1)CN(C(=O)c1ccncc1)C2 [Cpd 5, 3-(4-Chlorophenyl)-2-(2-ethylphenyl)-5-(pyridin-4-ylcarbonyl)-2,4,5,6-tetrahydropyrrolo[3,4-c]pyrazole]",inhibition at 0.25 µM (N-type calcium channel; [2]): 12%; inhibition at 0.25 µM (N-type calcium channel; [3]): 0%
180,23,16,"CCc1ccccc1-n1nc2c(c1-c1ccc(Cl)cc1)CN(C(=O)C(F)(F)F)C2 [Cpd 6, 3-(4-Chlorophenyl)-2-(2-ethylphenyl)-5-(trifluoroacetyl)-2,4,5,6-tetrahydropyrrolo[3,4-c]pyrazole]",
10,,,"COc1ccccc1-n1nc2c(c1-c1ccc(Cl)cc1)CN(S(=O)(=O)C(C)C)C2 [Cpd 31, 3-(4-Chlorophenyl)-2-(2-methoxyphenyl)-5-[(1-methylethyl)sulfonyl]-2,4,5,6-tetrahydropyrrolo[3,4-c]pyrazole]","inhibition at 0.33 µM ([1]; 0.33 μM compound, FDSS, 50 mM KCl): 94%; inhibition at 0.1 µM (N-type calcium channel; [2]): 47%; inhibition at 0.1 µM (N-type calcium channel; [3]): 11%"
5,,,"COc1ccccc1-n1nc2c(c1-c1ccc(Cl)cc1)CN(S(=O)(=O)N1C[C@H](C)O[C@@H](C)C1)C2 (mixture of isomers) [Cpd 61, 3-(4-Chlorophenyl)-5-{[(2S,6S)-2,6-dimethylmorpholin-4-yl]sulfonyl}-2-(2-methoxyphenyl)-2,4,5,6-tetrahydropyrrolo[3,4-c]pyrazole]",inhibition at 0.1 µM (N-type calcium channel; [2]): 50%; inhibition at 0.1 µM (N-type calcium channel; [3]): 53%
